Assay results reported in paper PMC7156458, “Synthetic biology based construction of biological activity-related library of fungal decalin-containing diterpenoid pyrones” (Nature Communications, 2020).

Target: Aβ42 (Homo sapiens, UniProt P05067)
Test: Th-T (thioflavin-T) assay of Aβ42 aggregation
Format: biochemical
Details: for Th-T fluorescence, mean of three wells: compound at 50

Aβ42, sequence (P05067 672-713): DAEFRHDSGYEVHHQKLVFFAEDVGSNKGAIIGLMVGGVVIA

Q: Which results are given for `C=C1CC[C@@H]2[C@](C)(CC[C@H]3O[C@H](C=C(C)C)C[C@@]23C)[C@@H]1Cc1c(OC)oc(CO)c(C(=O)OC)c1=O` [Compound 21]?
A: Th-T fluorescence, mean of three wells (reading M54 of time course): 0.2222; Th-T fluorescence, mean of three wells (reading M55 of time course): 0.2197; Th-T fluorescence, mean of three wells (reading M56 of time course): 0.2209; Th-T fluorescence, mean of three wells (reading M57 of time course): 0.2237; Th-T fluorescence, mean of three wells (reading M58 of time course): 0.2252; Th-T fluorescence, mean of three wells (reading M59 of time course): 0.2206; Th-T fluorescence, mean of three wells (reading M60 of time course): 0.2276; Th-T fluorescence, mean of three wells (reading M61 of time course): 0.2285; Th-T fluorescence, mean of three wells (reading M62 of time course): 0.2296; Th-T fluorescence of Aβ42 with compound, mean of three wells (Fig. 7a source data) (concentration 10, unit not given, time-course reading M129): 1.701; Th-T fluorescence of Aβ42 with compound, mean of three wells (Fig. 7a source data) (concentration 10, unit not given, time-course reading M130): 1.706; Th-T fluorescence of Aβ42 with compound, mean of three wells (Fig. 7a source data) (concentration 10, unit not given, time-course reading M131): 1.73; Th-T fluorescence of Aβ42 with compound, mean of three wells (Fig. 7a source data) (concentration 10, unit not given, time-course reading M132): 1.6977; Th-T fluorescence of Aβ42 with compound, mean of three wells (Fig. 7a source data) (concentration 10, unit not given, time-course reading M133): 1.7165; Th-T fluorescence of Aβ42 with compound, mean of three wells (Fig. 7a source data) (concentration 10, unit not given, time-course reading M134): 1.726; Th-T fluorescence of Aβ42 with compound, mean of three wells (Fig. 7a source data) (concentration 10, unit not given, time-course reading M135): 1.717; Th-T fluorescence of Aβ42 with compound, mean of three wells (Fig. 7a source data) (concentration 10, unit not given, time-course reading M136): 1.738; Th-T fluorescence of Aβ42 with compound, mean of three wells (Fig. 7a source data) (concentration 10, unit not given, time-course reading M137): 1.7043; Th-T fluorescence of Aβ42 with compound, mean of three wells (Fig. 7a source data) (concentration 10, unit not given, time-course reading M138): 1.717; Th-T fluorescence of Aβ42 with compound, mean of three wells (Fig. 7a source data) (concentration 10, unit not given, time-course reading M139): 1.708; Th-T fluorescence of Aβ42 with compound, mean of three wells (Fig. 7a source data) (concentration 10, unit not given, time-course reading M140): 1.723; Th-T fluorescence of Aβ42 with compound, mean of three wells (Fig. 7a source data) (concentration 10, unit not given, time-course reading M141): 1.719; Th-T fluorescence of Aβ42 with compound, mean of three wells (Fig. 7a source data) (concentration 10, unit not given, time-course reading M142): 1.725; Th-T fluorescence of Aβ42 with compound, mean of three wells (Fig. 7a source data) (concentration 10, unit not given, time-course reading M143): 1.723; Th-T fluorescence of Aβ42 with compound, mean of three wells (Fig. 7a source data) (concentration 10, unit not given, time-course reading M144): 1.716; Th-T fluorescence of Aβ42 with compound, mean of three wells (Fig. 7a source data) (concentration 10, unit not given, time-course reading M145): 1.741; Th-T fluorescence of Aβ42 with compound, mean of three wells (Fig. 7a source data) (concentration 20, unit not given, time-course reading M129): 0.972; Th-T fluorescence of Aβ42 with compound, mean of three wells (Fig. 7a source data) (concentration 20, unit not given, time-course reading M130): 0.9564; Th-T fluorescence of Aβ42 with compound, mean of three wells (Fig. 7a source data) (concentration 20, unit not given, time-course reading M131): 0.9524; Th-T fluorescence of Aβ42 with compound, mean of three wells (Fig. 7a source data) (concentration 20, unit not given, time-course reading M132): 0.9585; Th-T fluorescence of Aβ42 with compound, mean of three wells (Fig. 7a source data) (concentration 20, unit not given, time-course reading M133): 0.9579; Th-T fluorescence of Aβ42 with compound, mean of three wells (Fig. 7a source data) (concentration 20, unit not given, time-course reading M134): 0.9622; Th-T fluorescence of Aβ42 with compound, mean of three wells (Fig. 7a source data) (concentration 20, unit not given, time-course reading M135): 0.9636; Th-T fluorescence of Aβ42 with compound, mean of three wells (Fig. 7a source data) (concentration 20, unit not given, time-course reading M136): 0.9565; Th-T fluorescence of Aβ42 with compound, mean of three wells (Fig. 7a source data) (concentration 20, unit not given, time-course reading M137): 0.947; Th-T fluorescence of Aβ42 with compound, mean of three wells (Fig. 7a source data) (concentration 20, unit not given, time-course reading M138): 0.9539; Th-T fluorescence of Aβ42 with compound, mean of three wells (Fig. 7a source data) (concentration 20, unit not given, time-course reading M139): 0.9666; Th-T fluorescence of Aβ42 with compound, mean of three wells (Fig. 7a source data) (concentration 20, unit not given, time-course reading M140): 0.9636; Th-T fluorescence of Aβ42 with compound, mean of three wells (Fig. 7a source data) (concentration 20, unit not given, time-course reading M141): 0.9513; Th-T fluorescence of Aβ42 with compound, mean of three wells (Fig. 7a source data) (concentration 20, unit not given, time-course reading M142): 0.9675; Th-T fluorescence of Aβ42 with compound, mean of three wells (Fig. 7a source data) (concentration 20, unit not given, time-course reading M143): 0.9558; Th-T fluorescence of Aβ42 with compound, mean of three wells (Fig. 7a source data) (concentration 20, unit not given, time-course reading M144): 0.9694; Th-T fluorescence of Aβ42 with compound, mean of three wells (Fig. 7a source data) (concentration 20, unit not given, time-course reading M145): 0.9486; Th-T fluorescence of Aβ42 with compound, mean of three wells (Fig. 7a source data) (concentration 50, unit not given, time-course reading M129): 0.5005; Th-T fluorescence of Aβ42 with compound, mean of three wells (Fig. 7a source data) (concentration 50, unit not given, time-course reading M130): 0.4954; Th-T fluorescence of Aβ42 with compound, mean of three wells (Fig. 7a source data) (concentration 50, unit not given, time-course reading M131): 0.4987; Th-T fluorescence of Aβ42 with compound, mean of three wells (Fig. 7a source data) (concentration 50, unit not given, time-course reading M132): 0.5011; Th-T fluorescence of Aβ42 with compound, mean of three wells (Fig. 7a source data) (concentration 50, unit not given, time-course reading M133): 0.5033; Th-T fluorescence of Aβ42 with compound, mean of three wells (Fig. 7a source data) (concentration 50, unit not given, time-course reading M134): 0.5026; Th-T fluorescence of Aβ42 with compound, mean of three wells (Fig. 7a source data) (concentration 50, unit not given, time-course reading M135): 0.5014; Th-T fluorescence of Aβ42 with compound, mean of three wells (Fig. 7a source data) (concentration 50, unit not given, time-course reading M136): 0.502; Th-T fluorescence of Aβ42 with compound, mean of three wells (Fig. 7a source data) (concentration 50, unit not given, time-course reading M137): 0.5003; Th-T fluorescence of Aβ42 with compound, mean of three wells (Fig. 7a source data) (concentration 50, unit not given, time-course reading M138): 0.5022; Th-T fluorescence of Aβ42 with compound, mean of three wells (Fig. 7a source data) (concentration 50, unit not given, time-course reading M139): 0.5032; Th-T fluorescence of Aβ42 with compound, mean of three wells (Fig. 7a source data) (concentration 50, unit not given, time-course reading M140): 0.5012; Th-T fluorescence of Aβ42 with compound, mean of three wells (Fig. 7a source data) (concentration 50, unit not given, time-course reading M141): 0.504; Th-T fluorescence of Aβ42 with compound, mean of three wells (Fig. 7a source data) (concentration 50, unit not given, time-course reading M142): 0.5037
